Measurements taken from ChEMBL document CHEMBL3351664, “Acylphloroglucinol derivatives from Hypericum andinum: antidepressant-like activity of andinin A” (J Nat Prod, 2014).

Assays:
Mus musculus [1] = assay: Antidepressant-like activity in po dosed mouse assessed as reduction in the immobility time by forced-swimming test; type: functional, organism-based
Mus musculus [2] = assay: Toxicity in po dosed CF1 mouse assessed as effect on locomotor activity at 30 mg/kg, po measured after 60 mins by open-field test; type: organism-based; design: dose 30 mg/kg, route oral; conditions: in vivo, 1 h

Q: What does the source list for CC(C)=CCOc1cc(O)c(C(=O)C(C)C)c(O)c1CC1=C(O)C(C)(C)C(O)=C(C(=O)C(C)C)C1=O?
A: Activity (Mus musculus [1]): Dose-dependent effect; Activity (Mus musculus [2]): Non-toxic
